Source: patent US20100267823A1, “AURONES AS SELECTIVE PDE INHIBITORS AND THEIR USE IN NEUROLOGICAL CONDITIONS AND DISORDERS” (priority 2009, published 2010)

Experiments:
Format in all cases: biochemical
[1] = tested on: PDE1 protein isolated from bovine brain; assay: PDE 1 inhibition assay ([3H]cAMP hydrolysis); conditions: final concentration of the test compound 10 μM
Procedure: (§1) PDE1 protein isolated from bovine brain (MDS Pharma Services: cat. No. 146000) was pre-incubated with the respective test compound dissolved in 1% DMSO aqueous solution for 15 minutes at 25° C. in an incubation buffer (50 mM Tris-HCl, pH 7.5, 5 mM MgCl2, 2 mM CaCl2, 100 U/ml Calmodulin). After pre-incubation phase 1.01 μM [^3H]cAMP+cAMP where added as substrate to the buffer and the mixture was incubated for additional 20 minutes (25° C.).
(§2) At the end of incubation phase [^3H] Adenosine concentrations were quantified. The final concentration of the test compound is 10 μM.

[2] = molecular target: T1, PDE3 protein isolated from human platelets (Homo sapiens, UniProt Q14432); assay: PDE 3 inhibition assay ([3H]cAMP hydrolysis); conditions: final concentration of the test compound 10 μM; read-out: inhibition compared with the control (PDE 3)
T1 construct: PDE3 protein isolated from human platelets; tissue MDS Pharma Services 152000; host or cells: human platelets
Procedure: PDE3 protein isolated from human platelets (MDS Pharma Services: cat. No. 152000) was pre-incubated with the respective test compound dissolved in 1% DMSO aqueous solution for 15 minutes at 25° C. in an incubation buffer (50 mM Tris-HCl, pH 7.5, […], […]). After pre-incubation phase 1.01 μM [^3H]cAMP+cAMP where added as substrate to the buffer and the mixture was incubated for additional 20 minutes (25° C.). At the end of incubation phase [^3H] Adenosine concentrations were quantified. Stimulating or inhibiting effects equal or larger than 50% in comparison to vehicle (1% DMSO) control were considered as significant effects.
as §2

[3] = tested on: PDE4 protein from human leukemic monocyte lymphoma cell line (U937); assay: PDE 4 inhibition assay ([3H]cAMP hydrolysis); conditions: final concentration of the test compound 10 μM
Procedure: as §1, with “PDE4” for “PDE1”, “protein” for “protein isolated”, “human leukemic monocyte lymphoma cell line (U937, for example abcam ab3959)” for “bovine brain”, “152000)” for “146000)”, “C.). At the end of incubation phase [^3H] Adenosine concentrations were quantified.” for “C.).”
as §2

T1 sequence (Q14432 whole entry): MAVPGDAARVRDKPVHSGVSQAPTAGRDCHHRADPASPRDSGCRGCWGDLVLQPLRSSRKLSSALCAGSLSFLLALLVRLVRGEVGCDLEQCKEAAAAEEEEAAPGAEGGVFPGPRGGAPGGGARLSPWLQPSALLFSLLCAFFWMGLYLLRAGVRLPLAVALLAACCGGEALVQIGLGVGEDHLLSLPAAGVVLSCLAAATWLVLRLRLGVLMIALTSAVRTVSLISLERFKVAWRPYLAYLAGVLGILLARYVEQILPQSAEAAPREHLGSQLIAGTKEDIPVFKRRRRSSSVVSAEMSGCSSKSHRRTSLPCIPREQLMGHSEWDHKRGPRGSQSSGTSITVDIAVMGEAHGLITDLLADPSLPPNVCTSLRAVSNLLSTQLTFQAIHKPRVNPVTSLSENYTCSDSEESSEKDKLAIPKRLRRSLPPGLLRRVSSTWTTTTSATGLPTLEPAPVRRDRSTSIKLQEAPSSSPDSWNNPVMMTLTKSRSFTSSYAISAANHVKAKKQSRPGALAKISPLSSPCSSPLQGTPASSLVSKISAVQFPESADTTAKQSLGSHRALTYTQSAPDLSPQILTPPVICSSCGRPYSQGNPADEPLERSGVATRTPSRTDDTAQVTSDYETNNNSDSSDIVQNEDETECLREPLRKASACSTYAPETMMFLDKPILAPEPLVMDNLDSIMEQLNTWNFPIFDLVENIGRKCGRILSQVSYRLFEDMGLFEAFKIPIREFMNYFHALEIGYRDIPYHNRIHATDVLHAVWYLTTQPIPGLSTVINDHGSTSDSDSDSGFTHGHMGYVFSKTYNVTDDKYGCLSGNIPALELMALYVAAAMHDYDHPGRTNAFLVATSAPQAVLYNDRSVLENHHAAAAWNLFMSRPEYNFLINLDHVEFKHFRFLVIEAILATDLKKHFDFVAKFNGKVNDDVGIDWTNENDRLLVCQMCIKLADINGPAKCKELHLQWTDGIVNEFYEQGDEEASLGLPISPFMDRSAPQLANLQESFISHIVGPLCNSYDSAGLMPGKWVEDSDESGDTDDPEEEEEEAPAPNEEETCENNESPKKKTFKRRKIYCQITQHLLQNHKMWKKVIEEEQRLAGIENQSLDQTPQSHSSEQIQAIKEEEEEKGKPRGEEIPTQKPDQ

Row | Structure (SMILES) | inhibition compared with the control (PDE 1) [1] | inhibition at 10 µM [2] | inhibition compared with the control (PDE 4) [3]
1 | O=C1/C(=C/c2ccc(O)cc2)Oc2cc(O)cc(O)c21 [SM 30(3), 4,4′,6-Trihydroxy-aurone] | 52% | 74% | 41%
2 | O=C1/C(=C/c2ccc(O)cc2O)Oc2cc(O)cc(O)c21 [SM 29 (3), 2′,4,4′,6-Tetrahydroxy-aurone] | 52% | 39% | 29%
